Experimental data from patent publication US10173995B2, “Pyridine compounds used as PI3 kinase inhibitors” (Teligene Ltd., priority 2013, dated 2019).

Assays:
[1] = tested on: MCF-7 human breast cancer cell lines; experiment: MCF-7 cell proliferation assay (CCK-8/WST-8, 72 hours); format: cell-based; details: MCF7, WST-8
Procedure: A representative number of compounds were assayed against MCF-7 human breast cancer cell lines using the cell proliferation assay:
1. MCF-7 cells were cultured in EMEM (GIBCO, Cat#41500) medium supplemented with 10% fetal bovine serum, 0.01 mg/ml human recombinant insulin and 1% penicillin-streptomycin solution, in the temperature of 37° C., 5% CO2 and 95% humidity. The cells were harvested during the logarithmic growth period and counted with hemocytometer. The cell viability will be over 98% by trypan blue exclusion. Cell Counting Kit-8 (Dojindo, Cat# CK04) was used. 2. A cell suspension (100 μl) was added into 96-well plates (triplicates for each cell concentration), the cell density was 4.0×10^3/well. The next day, the test articles or positive drug stock solution were dissolved in DMSO at the concentration of 10 mM, the stock solutions were diluted with DMSO by serial 3 or 10 fold dilution. Then the test articles dilutions were further diluted with culture medium to the final concentrations of (10.0 μM, 3.33 μM, 1.11 μM, 366 nM, 122 nM, 40.7 nM, 13.6 nM, 4.52 nM and 0 nM), the positive drug dilutions were further diluted with culture medium to 9 final concentrations of (10 μM, 1 μM, 100 nM, 10 nM, 1 nM, 0.1 nM, 0.01 nM, 0.001 nM and 0 nM). […] The absorbance was recorded at 450 nm using Victor Multilabel Plate Reader. […]

A549 cell line xenograft = experiment: In vivo subcutaneous A549 cell line xenograft model in nude mice, tumor growth inhibition; details: for Tumor growth inhibition (TGI, %) at 14 days: day 14, A549 xenograft nude mice
Procedure: (§1) A representative protocol for the in vivo experiment is as follows to establish the subcutaneous A549 cell line xenograft model in nude mice and to evaluate the in vivo therapeutic efficacy of the compounds: A549 cells were cultured in RPMI1640 containing 10% fetal bovine serum, 1% L-glutamine, 100 U/mL penicillinG and 100 μg/mL streptomycin. Cells in logarithmic growth phase were harvested and resuspended in 1×PBS for implantation.
(§2) Tumor xenografts were established by injecting tumor cells 5×10^6/mouse into the right flank by sc under sterile conditions. When the tumors reached an appropriate size (100-200 mm^3), mice were randomized into 6 mice per group (8 mice in control group). The tumors were measured using a caliper in two dimensions, length (a), and width (b). Tumor volumes were estimated from measurements of two diameters of the individual tumors as follows: Tumor Volume(mm^3)=(a×b^2)/2 The tumor sizes and animal body weights were measured twice a week. Mice were observed daily for clinical signs. Blood samples were collected 2 hours after last treatment; plasma samples were prepared and stored at −80° C. Tumor tissues were separated, weighed, taken picture, and subsequently stored at −80° C. for further analysis. All animal experiments were performed in accordance with the Guidelines for Use and Care of Animals of the University of Traditional Medicine. The parameters for in vivo efficacy evaluation were calculated according to the guidance of SFDA. Percent T/C (%) was calculated with the following formula: T/C(%)=(TRTV/CRTV)×100%, where TRTV and CRTV stand for relative tumor volume in treatment group and vehicle control group, respectively. Relative tumor volume (RTV) was calculated using the formula: RTV=Vt/V0, where Vt represents volume on testing day, and V0 represents volume on first day of treatment. Tumor growth inhibition (TGI, %) were calculated as TGI (%)=(Ctw−Ttw)/Ctw×100%, where Ctw and Ttw represent mean tumor weight in vehicle control and treatment group, respectively.
(§3) Compound Preparation: Test articles were dissolved in 100% N-methylpyrrolidone (NMP) and 10× solutions were prepared every five days, aliquotted, and stored in the dark at room temperature. On each treatment day, stock solution aliquots were diluted with polyethylene glycol (PEG300) to provide the formulated drug in 10% NMP: 90% PEG300. Dosing solutions were protected from light, and the formulated drug was administered within 1 hour after preparation. In all groups, the dosing volume of 10 mL/kg (0.2 mL/20 g mouse) was scaled to the weight of each animal as determined on the day of dosing, except on weekends when the previous BW is carried forward. Test articles were administered by oral gavage (p.o.) once daily until the end of the study.
(§4) At study endpoint, after blood collection, mice were practiced euthanasia by cervical dislocation, the tumor tissue was collected first, then abdominal cavity was cut open, liver and spleen were excised, then weight after the gallbladder was removed respectively. Organ weight between the treated versus the control groups were compared.

[2] = Kidney weight change versus control in A549 xenograft model in nude mice; format: in vivo; details: day 21, A549 xenograft nude mice
Procedure: as §1, §2, §3, §4

PI3K alpha (PIK3CA) = PI3K alpha (PIK3CA) (Homo sapiens (Human), UniProt P42336); experiment: In vitro assay of ability to inhibit PI3K alpha activity (phage-tagged kinase competition binding, qPCR)
Chain of PI3K alpha (PIK3CA) (P42336 whole entry, species assumed): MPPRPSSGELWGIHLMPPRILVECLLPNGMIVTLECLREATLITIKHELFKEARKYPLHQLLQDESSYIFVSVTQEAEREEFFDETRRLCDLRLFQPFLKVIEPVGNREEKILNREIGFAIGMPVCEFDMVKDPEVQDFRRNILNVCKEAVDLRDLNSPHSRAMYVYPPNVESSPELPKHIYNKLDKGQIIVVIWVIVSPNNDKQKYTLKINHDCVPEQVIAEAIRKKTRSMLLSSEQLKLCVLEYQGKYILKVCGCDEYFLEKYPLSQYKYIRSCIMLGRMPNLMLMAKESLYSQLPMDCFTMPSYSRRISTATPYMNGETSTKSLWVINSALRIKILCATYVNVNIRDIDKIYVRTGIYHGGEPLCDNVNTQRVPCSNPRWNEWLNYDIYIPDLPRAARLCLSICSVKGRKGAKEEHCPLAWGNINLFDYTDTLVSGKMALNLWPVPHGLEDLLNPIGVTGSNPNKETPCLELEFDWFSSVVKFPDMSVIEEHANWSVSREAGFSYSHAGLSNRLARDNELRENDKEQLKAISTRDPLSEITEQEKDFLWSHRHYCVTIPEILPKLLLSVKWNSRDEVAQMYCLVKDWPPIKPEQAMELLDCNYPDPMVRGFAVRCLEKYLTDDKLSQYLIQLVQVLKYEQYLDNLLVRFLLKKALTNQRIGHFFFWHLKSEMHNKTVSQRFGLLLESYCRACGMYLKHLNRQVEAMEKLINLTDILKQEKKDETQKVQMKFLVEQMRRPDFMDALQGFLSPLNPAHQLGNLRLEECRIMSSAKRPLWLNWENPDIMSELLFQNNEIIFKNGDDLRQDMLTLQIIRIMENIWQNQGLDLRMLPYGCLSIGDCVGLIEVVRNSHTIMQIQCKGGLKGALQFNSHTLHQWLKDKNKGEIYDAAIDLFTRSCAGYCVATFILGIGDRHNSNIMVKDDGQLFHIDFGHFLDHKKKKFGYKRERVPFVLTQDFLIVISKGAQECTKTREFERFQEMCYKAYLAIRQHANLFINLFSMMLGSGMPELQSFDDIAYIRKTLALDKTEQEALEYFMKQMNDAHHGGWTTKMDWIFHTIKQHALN
Procedure: (§5) (a) An in vitro assay which determines the ability of a test compound to inhibit PI3K alpha activity: PI3 alpha (PIK3CA) kinase-tagged T7 phage strains were prepared in an E. coli host derived from the BL21 strain. E. coli were grown to log-phase and infected with T7 phage and incubated with shaking at 32° C. until lysis. The lysates were centrifuged and filtered to remove cell debris. The remaining kinases were produced in HEK-293 cells and subsequently tagged with DNA for qPCR detection. […] The liganded beads were blocked with excess biotin and washed with blocking buffer (SeaBlock (Pierce), 1% BSA, 0.05% Tween 20, 1 mM DTT) to remove unbound ligand and to reduce non-specific binding. Binding reactions were assembled by combining kinases, liganded affinity beads, and test compounds in 1× binding buffer (20% SeaBlock, 0.17×PBS, 0.05% Tween 20, 6 mM DTT). All reactions were performed in polystyrene 96-well plates in a final volume of 0.135 ml. The assay plates were incubated at room temperature with shaking for 1 hour and the affinity beads were washed with wash buffer (1×PBS, 0.05% Tween 20). […] The kinase concentration in the eluates was measured by qPCR.
An 11-point 3-fold serial dilution of each test compound was prepared in 100% DMSO at 100× final test concentration and subsequently diluted to 1× in the assay (final DMSO concentration=1%).
Binding constants (Kd's) were calculated with a standard dose-response curve using the Hill equation: Response=Background+(Signal−Background)/(1+(Kd^Hill Slope/Dose^Hill Slope)) The Hill Slope was set to −1. Curves were fitted using a non-linear least square fit with the Levenberg-Marquardt algorithm.

[3] = target: MTOR (Mammalian target of rapamycin) (Homo sapiens (Human), UniProt P42345); experiment: In vitro assay of ability to inhibit MTOR (same conditions as PI3K alpha assay); format: binding; details: read-out: IC50 for MTOR inhibition
Procedure: as §5, with “qPCR. […]” for “qPCR.”
Binding constants (Kd's) were calculated with a standard dose-response curve using the Hill equation: Response=Background+(Signal−Background)/(1+(Kd^Hill Slope/Dose^Hill Slope)) The Hill Slope was set to −1. […]

[4] = 49 μmol/kg oral gavage once daily
[5] = 98 μmol/kg oral gavage once daily

Row | IC50 [1] | Kidney weight change compared to the control at 21 days [2, 4] | Kidney weight change compared to the control at 21 days [2, 5] | IC50 (PI3K alpha (PIK3CA)) | Compound | Tumor growth inhibition (TGI, %) at 14 days (A549 cell line xenograft; [4]) | Tumor growth inhibition (TGI, %) at 14 days (A549 cell line xenograft; [5]) | also measured
1 | 186 nM | −8.7% | −20.1% |  | Nc1cc(C(F)(F)F)c(-c2cc(N3CCOCC3)nc(N3CCOCC3)n2)cn1 [Compound 1, 5-(2,6-Dimorpholinopyrimidin-4-yl)-4-(trifluoromethyl)pyridin-2-amine, reference compound] | 36% | 70% | 
2 | 82.4 nM |  |  |  | CC(=O)Nc1cc(C(F)(F)F)c(-c2cc(N3CCOCC3)nc(N3CCOCC3)n2)cn1 [Compound 2, N-(5-(2,6-dimorpholinopyrimidin-4-yl)-4-(trifluoromethyl)pyridin-2-yl)acetamide] | 52% | 82% | 
3 |  |  |  | 1.9 nM | CNc1cc(C(F)(F)F)c(-c2cc(N3CCOCC3)nc(N3CCOCC3)n2)cn1 [Compound 4, 5-(2,6-dimorpholinopyrimidin-4-yl)-N-methyl-4-(trifluoromethyl)pyridin-2-amine] |  |  | 
4 |  |  |  | 10 nM | CCNc1cc(C(F)(F)F)c(-c2cc(N3CCOCC3)nc(N3CCOCC3)n2)cn1 [Compound 5, 5-(2,6-dimorpholinopyrimidin-4-yl)-N-ethyl-4-(trifluoromethyl)pyridin-2-amine] |  |  | 
5 |  |  |  | 60 nM | CCCNc1cc(C(F)(F)F)c(-c2cc(N3CCOCC3)nc(N3CCOCC3)n2)cn1 [Compound 6, 5-(2,6-dimorpholinopyrimidin-4-yl)-N-propyl-4-(trifluoromethyl)pyridin-2-amine] |  |  | 
6 |  | −5.0% | −8.1% | 0.84 nM | NCC(=O)Nc1cc(C(F)(F)F)c(-c2cc(N3CCOCC3)nc(N3CCOCC3)n2)cn1 [Compound 9, 2-amino-N-(5-(2,6-dimorpholinopyrimidin-4-yl)-4-(trifluoromethyl)pyridin-2-yl)acetamide] |  |  | IC50 [3]: 26 nM; Efficacy in A549 xenograft model at day 21 (in words) (A549 cell line xenograft; 49 μmol/kg dose, day 21): better efficacy than Compound 1; Kidney weight decrease compared with the control (in words) [2]: much less decreased kidney weight than Compound 1
